Results reported in patent US8614327B2 (Vertex Pharmaceuticals Incorporated, priority 2004, dated 2013).

Target: T1, ΔF508-CFTR (Homo sapiens, UniProt P13569, DEL508-508)
T1 construct: expressed in transfected cells
Experiment: Membrane potential optical (FRET/VIPR) assay, identification of potentiator compounds
Assay type: cell-based
Conditions: Table 3, assay not given; for % Activity: relative efficacy
Text: I) Membrane Potential Optical Methods for Assaying ΔF508-CFTR Modulation Properties of Compounds The optical membrane potential assay utilized voltage-sensitive FRET sensors described by Gonzalez and Tsien (See, Gonzalez, J. E. and R. Y. Tsien (1995) “Voltage sensing by fluorescence resonance energy transfer in single cells” Biophys J 69(4): 1272-80, and Gonzalez, J. E. and R. Y. Tsien (1997) “Improved indicators of cell membrane potential that use fluorescence resonance energy transfer” Chem Biol 4(4): 269-77) in combination with instrumentation for measuring fluorescence changes such as the Voltage/Ion Probe Reader (VIPR) (See, […]. Oades, et al. (1999) “Cell-based assays and instrumentation for screening ion-channel targets” Drug Discov Today 4(9): 431-439). These voltage sensitive assays are based on the change in fluorescence resonant energy transfer (FRET) between the membrane-soluble, voltage-sensitive dye, DiSBAC2(3), and a fluorescent phospholipid, CC2-DMPE, which is attached to the outer leaflet of the plasma membrane and acts as a FRET donor. Changes in membrane potential (Vm) cause the negatively charged DiSBAC2(3) to redistribute across the plasma membrane and the amount of energy transfer from CC2-DMPE changes accordingly. The changes in fluorescence emission were monitored using VIPR which is an integrated liquid handler and fluorescent detector designed to conduct cell-based screens in 96- or 384-well microtiter plates. To identify potentiators of ΔF508-CFTR, a double-addition HTS assay format was developed. During the first addition, a Cl^--free medium with or without test compound was added to each well. […] (in mM) NaCl 160, KCl 4.5, CaCl2 2, MgCl2 1, HEPES 10, pH 7.4 with NaOH. • Chloride-free bath solution: Chloride salts in Bath Solution #1 are substituted with gluconate salts. • CC2-DMPE: Prepared as a 10 mM stock solution in DMSO and stored at -20° C. • DiSBAC2(3): Prepared as a 10 mM stock in DMSO and stored at -20° C. NIH3T3 mouse fibroblasts stably expressing ΔF508-CFTR are used for optical measurements of membrane potential. […] For all optical assays, the cells were seeded at 30,000/well in 384-well matrigel-coated plates and cultured for 2 hrs at 37° C. before culturing at 27° C. for 24 hrs. for the potentiator assay.

T1 sequence (P13569 with tags, fused parts or gaps DEL508-508): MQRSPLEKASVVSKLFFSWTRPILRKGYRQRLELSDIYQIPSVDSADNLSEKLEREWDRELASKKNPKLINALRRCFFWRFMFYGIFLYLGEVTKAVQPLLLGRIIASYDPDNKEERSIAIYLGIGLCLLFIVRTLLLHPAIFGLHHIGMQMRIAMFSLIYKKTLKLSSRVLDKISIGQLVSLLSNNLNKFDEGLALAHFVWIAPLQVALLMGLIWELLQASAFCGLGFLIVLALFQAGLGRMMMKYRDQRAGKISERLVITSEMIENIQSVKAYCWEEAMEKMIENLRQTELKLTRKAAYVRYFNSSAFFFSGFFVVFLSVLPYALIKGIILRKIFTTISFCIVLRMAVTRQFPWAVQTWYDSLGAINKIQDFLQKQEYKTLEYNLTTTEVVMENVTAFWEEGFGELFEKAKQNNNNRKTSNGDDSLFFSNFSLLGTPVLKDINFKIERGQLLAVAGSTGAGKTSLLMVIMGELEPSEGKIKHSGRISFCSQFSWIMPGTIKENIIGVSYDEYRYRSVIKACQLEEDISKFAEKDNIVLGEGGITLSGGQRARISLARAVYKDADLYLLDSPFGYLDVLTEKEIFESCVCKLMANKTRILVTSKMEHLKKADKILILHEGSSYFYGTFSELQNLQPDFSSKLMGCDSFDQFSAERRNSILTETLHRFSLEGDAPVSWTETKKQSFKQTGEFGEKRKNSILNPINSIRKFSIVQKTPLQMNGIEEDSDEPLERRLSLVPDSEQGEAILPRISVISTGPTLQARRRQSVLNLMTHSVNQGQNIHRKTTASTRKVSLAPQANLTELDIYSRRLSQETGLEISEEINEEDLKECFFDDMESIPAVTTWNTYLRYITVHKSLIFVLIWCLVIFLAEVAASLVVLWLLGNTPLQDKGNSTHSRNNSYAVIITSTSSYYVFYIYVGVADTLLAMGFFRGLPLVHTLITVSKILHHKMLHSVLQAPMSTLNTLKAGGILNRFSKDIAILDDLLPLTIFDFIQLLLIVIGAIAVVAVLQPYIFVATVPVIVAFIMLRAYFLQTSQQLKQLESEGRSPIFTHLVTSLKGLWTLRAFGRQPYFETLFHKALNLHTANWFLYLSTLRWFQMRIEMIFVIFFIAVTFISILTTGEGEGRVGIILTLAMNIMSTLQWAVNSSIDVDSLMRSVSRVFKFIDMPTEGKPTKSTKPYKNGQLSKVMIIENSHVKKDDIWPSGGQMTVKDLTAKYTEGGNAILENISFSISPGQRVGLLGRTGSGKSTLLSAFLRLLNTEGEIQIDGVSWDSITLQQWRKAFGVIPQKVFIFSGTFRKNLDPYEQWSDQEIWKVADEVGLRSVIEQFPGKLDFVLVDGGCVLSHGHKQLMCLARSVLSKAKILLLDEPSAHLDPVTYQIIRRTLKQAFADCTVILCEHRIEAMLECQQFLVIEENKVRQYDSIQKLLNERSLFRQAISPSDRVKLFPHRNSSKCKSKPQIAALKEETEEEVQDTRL

Row | SMILES | EC50 | % Activity
1 | O=C(Nc1ccc2c(c1)OC(F)(F)O2)c1c[nH]c2ccccc2c1=O [Compound 66, N-(2,2-difluorobenzo[1,3]dioxol-5-yl)-4-oxo-1H-quinoline-3-carboxamide] | 10 to 25 µM | ++ (between 25% to 100%)
2 | CCc1ccc2ncc(C(=O)Nc3ccc4cc[nH]c4c3)c(O)c2c1 [Compound 67, 6-ethyl-4-hydroxy-N-(1H-indol-6-yl)quinoline-3-carboxamide] | < 10 µM | ++ (between 25% to 100%)
3 | COC(=O)c1cccc(-c2ccccc2NC(=O)c2c[nH]c3ccccc3c2=O)c1 [Compound 68, 3-[2-[(4-oxo-1H-quinolin-3-yl)carbonylamino]phenyl]benzoic acid methyl ester] |  | ++ (between 25% to 100%)
4 | CC(C)c1ccc(NC(=O)c2c[nH]c3ccccc3c2=O)cc1N [Compound 69, N-(3-amino-4-isopropyl-phenyl)-4-oxo-1H-quinoline-3-carboxamide] | < 10 µM | ++ (between 25% to 100%)
5 | O=C(Nc1ccccc1-c1ccncc1)c1c[nH]c2ccccc2c1=O [Compound 70, 4-oxo-N-[2-(4-pyridyl)phenyl]-1H-quinoline-3-carboxamide] |  | ++ (between 25% to 100%)
6 | CC(C)OC(=O)c1cccc(-c2ccccc2NC(=O)c2c[nH]c3ccccc3c2=O)c1 [Compound 71, 3-[2-[(4-oxo-1H-quinolin-3-yl)carbonylamino]phenyl]benzoic acid isopropyl ester] | < 10 µM | ++ (between 25% to 100%)
7 | CCc1ccccc1NC(=O)c1c[nH]c2ccccc2c1=O [Compound 72, N-(2-ethylphenyl)-4-oxo-1H-quinoline-3-carboxamide] | < 10 µM | ++ (between 25% to 100%)
8 | O=C(Nc1ccc2nc(-c3ccccc3)[nH]c2c1)c1c[nH]c2ccccc2c1=O [Compound 73, 4-oxo-N-(2-phenyl-3H-benzoimidazol-5-yl)-1H-quinoline-3-carboxamide] | 25 to 60 µM | + (<25%)
9 | O=C(Nc1ccc(C(F)(F)F)cn1)c1c[nH]c2ccccc2c1=O [Compound 74, 4-oxo-N-[5-(trifluoromethyl)-2-pyridyl]-1H-quinoline-3-carboxamide] | 25 to 60 µM | + (<25%)
10 | O=C(Nc1cnc2ccccc2c1)c1c[nH]c2ccccc2c1=O [Compound 75, 4-oxo-N-(3-quinolyl)-1H-quinoline-3-carboxamide] | 25 to 60 µM | + (<25%)
11 | O=C(Nc1ccccc1-c1ccc(F)c(F)c1)c1c[nH]c2ccccc2c1=O [Compound 76, N-[2-(3,4-difluorophenyl)phenyl]-4-oxo-1H-quinoline-3-carboxamide] | < 10 µM | ++ (between 25% to 100%)
12 | O=C(Nc1cc2[nH]ccc2cc1F)c1c[nH]c2ccccc2c1=O [Compound 77, N-(5-fluoro-1H-indol-6-yl)-4-oxo-1H-quinoline-3-carboxamide] | < 10 µM | ++ (between 25% to 100%)
13 | NS(=O)(=O)c1ccccc1NC(=O)c1c[nH]c2ccccc2c1=O [Compound 78, 4-oxo-N-(2-sulfamoylphenyl)-1H-quinoline-3-carboxamide] | 25 to 60 µM | + (<25%)
14 | Cc1cc(-c2ccccc2NC(=O)c2c[nH]c3ccccc3c2=O)ccc1F [Compound 79, N-[2-(4-fluoro-3-methyl-phenyl)phenyl]-4-oxo-1H-quinoline-3-carboxamide] |  | ++ (between 25% to 100%)
15 | COc1ccccc1NC(=O)c1c[nH]c2ccccc2c1=O [Compound 80, N-(2-methoxyphenyl)-4-oxo-1H-quinoline-3-carboxamide] | < 10 µM | ++ (between 25% to 100%)
16 | CCC(=O)Nc1cccc(NC(=O)c2c[nH]c3ccccc3c2=O)c1 [Compound 81, 4-oxo-N-(3-propionylaminophenyl)-1H-quinoline-3-carboxamide] | 25 to 60 µM | + (<25%)
17 | CCN(CC)c1ccc(NC(=O)c2c[nH]c3ccccc3c2=O)c(C)c1 [Compound 82, N-(4-diethylamino-2-methyl-phenyl)-4-oxo-1H-quinoline-3-carboxamide] | < 10 µM | ++ (between 25% to 100%)

Row | SMILES | EC50 | % Activity
18 | N#Cc1cccc(-c2ccccc2NC(=O)c2c[nH]c3ccccc3c2=O)c1 [Compound 83, N-[2-(3-cyanophenyl)phenyl]-4-oxo-1H-quinoline-3-carboxamide] | < 10 µM | ++ (between 25% to 100%)
19 | Cc1ccnc(NC(=O)c2c[nH]c3ccccc3c2=O)c1 [Compound 84, N-(4-methyl-2-pyridyl)-4-oxo-1H-quinoline-3-carboxamide] | 25 to 60 µM | + (<25%)
20 | O=C(Nc1ccccc1-c1ccc(Cl)c(Cl)c1)c1c[nH]c2ccccc2c1=O [Compound 85, N-[2-(3,4-dichlorophenyl)phenyl]-4-oxo-1H-quinoline-3-carboxamide] | < 10 µM | ++ (between 25% to 100%)
21 | NCc1ccccc1-c1ccc(NC(=O)c2c[nH]c3ccccc3c2=O)cc1 [Compound 86, N-[4-[2-(aminomethyl)phenyl]phenyl]-4-oxo-1H-quinoline-3-carboxamide] | 10 to 25 µM | ++ (between 25% to 100%)
22 | O=C(Nc1cccc(Oc2ccccc2)c1)c1c[nH]c2ccccc2c1=O [Compound 87, 4-oxo-N-(3-phenoxyphenyl)-1H-quinoline-3-carboxamide] | < 10 µM | ++ (between 25% to 100%)
23 | Cc1ccc(C#N)c(NC(=O)c2c[nH]c3ccccc3c2=O)c1 [Compound 89, N-(2-cyano-5-methyl-phenyl)-4-oxo-1H-quinoline-3-carboxamide] | 25 to 60 µM | + (<25%)
24 | CC(C)(C)c1ccccc1NC(=O)c1c[nH]c2ccccc2c1=O [Compound 90, 4-oxo-N-(2-tert-butylphenyl)-1H-quinoline-3-carboxamide] | < 10 µM | ++ (between 25% to 100%)
25 | CCc1ccc(Cl)c(CC)c1NC(=O)c1c[nH]c2ccccc2c1=O [Compound 91, N-(3-chloro-2,6-diethyl-phenyl)-4-oxo-1H-quinoline-3-carboxamide] | < 10 µM | ++ (between 25% to 100%)
26 | CC1(c2cc(F)c(NC(=O)c3c[nH]c4ccccc4c3=O)cc2O)CCCCC1 [Compound 92, N-[2-fluoro-5-hydroxy-4-(1-methylcyclohexyl)-phenyl]-4-oxo-1H-quinoline-3-carboxamide] | < 10 µM | ++ (between 25% to 100%)
27 | N#Cc1ccc(-c2ccccc2NC(=O)c2c[nH]c3ccccc3c2=O)s1 [Compound 93, N-[2-(5-cyano-2-thienyl)phenyl]-4-oxo-1H-quinoline-3-carboxamide] | < 10 µM | ++ (between 25% to 100%)
28 | Cc1ccc(N)cc1NC(=O)c1c[nH]c2ccccc2c1=O [Compound 94, N-(5-Amino-2-methyl-phenyl)-4-oxo-1H-quinoline-3-carboxamide] | < 10 µM | ++ (between 25% to 100%)
29 | N#Cc1ccccc1NC(=O)c1c[nH]c2ccccc2c1=O [Compound 95, N-(2-cyanophenyl)-4-oxo-1H-quinoline-3-carboxamide] | 10 to 25 µM | ++ (between 25% to 100%)
30 | N#CCc1c[nH]c2cc(NC(=O)c3c[nH]c4ccccc4c3=O)ccc12 [Compound 96, N-[3-(cyanomethyl)-1H-indol-6-yl]-4-oxo-1H-quinoline-3-carboxamide] | < 10 µM | ++ (between 25% to 100%)
31 | COc1ncc(-c2ccccc2NC(=O)c2c[nH]c3ccccc3c2=O)c(OC)n1 [Compound 97, N-[2-(2,4-dimethoxypyrimidin-5-yl)phenyl]-4-oxo-1H-quinoline-3-carboxamide] | < 10 µM | ++ (between 25% to 100%)
32 | CCCc1ccc(N(C)C)cc1NC(=O)c1c[nH]c2ccccc2c1=O [Compound 98, N-(5-dimethylamino-2-propyl-phenyl)-4-oxo-1H-quinoline-3-carboxamide] | < 10 µM | ++ (between 25% to 100%)
33 | CCCCCc1ccc(NC(=O)c2c[nH]c3ccccc3c2=O)cc1 [Compound 99, 4-oxo-N-(4-pentylphenyl)-1H-quinoline-3-carboxamide] | < 10 µM | ++ (between 25% to 100%)
34 | O=C(Nc1cccc2[nH]ccc12)c1c[nH]c2ccccc2c1=O [Compound 100, N-(1H-indol-4-yl)-4-oxo-1H-quinoline-3-carboxamide] | 25 to 60 µM | + (<25%)
